# Measurements published in patent US20250332173A1, “COMPOUNDS AND METHODS FOR MODULATING NUCLEIC ACID SPLICING” (REMIX THERAPEUTICS INC., priority 2021, published 2025).
# Where two headings read alike, the source gives them in different places.
# Experiments:
# HTT mRNA = experiment: RT-qPCR splicing assay, HTT canonical junction (CJ) and alternative junction (AJ) mRNA; assay type: cell-based, human; conditions: Homo sapiens; for AC50: increase in HTT alternative junction (AJ) mRNA, read-out: HTT AJ AC50
# Procedure, shortened: (§1)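 Splicing switches were read by TaqMan RT-qPCR on lysates, quantifying exon-exon junctions of the canonical and alternative-exon isoforms. Lysates came from K562 (GAPDH/GUSB reference) or A673 (PPIA reference) cells exposed 24 h to compound in 11 threefold steps from 10 uM, with DMSO ≤0.25%.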
# Target C = experiment: HiBiT protein abundance assay, Target C (Promega Nano-Glo HiBiT Lytic Detection System, knock-in K562 cell line); assay type: cell-based, human; conditions: Homo sapiens, K562, 24 h, HiBiT K562 cell line, 24 hours, top dose 10 μM; read-out: Effect on protein abundance, Target C (IC50 category)
# Procedure, shortened: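 Protein abundance was read by Nano-Glo HiBiT lytic luminescence after 24 h compound exposure (10-point, threefold series from 10 μM final) of HiBiT knock-in K562 cells. Parental K562 served as baseline; the 50%-abundance concentration was interpolated from a four-parameter logistic fit.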
# [1] = system: K562 (human chronic myelogenous leukemia) cells; experiment: Cell Titer Glo 2.0 cell viability assay; assay type: cell-based; conditions: Homo sapiens, K562, 72 h, K562 cells, 72 hours, Cell Titer Glo 2.0; read-out: K562 GI50
# MYB mRNA = experiment: RT-qPCR splicing assay, MYB canonical junction (CJ) and alternative junction (AJ) mRNA; assay type: cell-based, human; conditions: Homo sapiens; for AC50: increase in MYB alternative junction (AJ) mRNA, read-out: MYB AJ AC50
# Procedure, shortened: as §1
# [2] = decrease in HTT canonical junction (CJ) mRNA, RT-qPCR, read-out: HTT CJ IC50
# [3] = canonical junction qPCR panel, Table 5, read-out: HTT (decrease in CJ mRNA levels, IC50)
# [4] = canonical junction qPCR panel, Table 5, read-out: MYB (decrease in CJ mRNA levels, IC50)
# [5] = decrease in MYB canonical junction (CJ) mRNA, RT-qPCR, read-out: MYB CJ IC50
# [6] = Table 5 panel, canonical junction qPCR, compound concentration having 50% response in CJ decrease, read-out: HTT IC50 (decrease in CJ mRNA levels)
# [7] = Table 5 panel, canonical junction qPCR, compound concentration having 50% response in CJ decrease, read-out: MYB IC50 (decrease in CJ mRNA levels)
SMILES,IC50 (HTT mRNA; [2]),IC50 (HTT mRNA; [3]),IC50 (Target C),GI50 [1],IC50 (MYB mRNA; [4]),IC50 (MYB mRNA; [5]),IC50 (HTT mRNA; [6]),IC50 (MYB mRNA; [7]),AC50 (HTT mRNA; RT-qPCR),AC50 (MYB mRNA; RT-qPCR)
Cn1cc2cc(-c3ccc4c(=O)n(C5CCNCC5)cnc4c3)ccc2n1 [Compound 182],1000 to 10000 nM,,1000 to 10000 nM,100 to 1000 nM,,100 to 1000 nM,1000 to 10000 nM,100 to 1000 nM,1000 to 10000 nM,100 to 1000 nM
Cc1cn2nc(-c3ccc4c(=O)n(C5CCNCC5)ncc4c3)cc(C)c2n1 [Compound 186],< 100 nM,,100 to 1000 nM,100 to 1000 nM,,100 to 1000 nM,< 100 nM,100 to 1000 nM,< 100 nM,< 100 nM
Cc1cn2nc(-c3ccc4c(c3F)CCN(C3CCNCC3)C4=O)cc(C)c2n1 [Compound 188],1000 to 10000 nM,,1000 to 10000 nM,1000 to 10000 nM,,100 to 1000 nM,1000 to 10000 nM,1000 to 10000 nM,1000 to 10000 nM,1000 to 10000 nM
CN1CCC(Nc2ccc3c(=O)n(-c4ccc5cn(C)nc5c4)cnc3c2)CC1 [Compound 203],> 10000 nM,,> 10000 nM,> 10000 nM,,> 10000 nM,> 10000 nM,> 10000 nM,> 10000 nM,> 10000 nM
Cn1cc2ccc(-n3cnc4cc(NC5CCNCC5)ccc4c3=O)cc2n1 [Compound 204],> 10000 nM,,> 10000 nM,> 10000 nM,,> 10000 nM,> 10000 nM,> 10000 nM,> 10000 nM,> 10000 nM
Cc1c(O)c(-c2ncc3c(=O)n(C4CCNCC4)cc(C)c3n2)cc2cn(C)nc12 [Compound 1191],100 to 1000 nM,,< 100 nM,< 100 nM,,< 100 nM,< 100 nM,< 100 nM,< 100 nM,< 100 nM
Cc1cn2cc(-c3cc4ccn(C5CCNCC5)c(=O)c4cn3)cc(F)c2n1 [Compound 1196],100 to 1000 nM,,100 to 1000 nM,100 to 1000 nM,,< 100 nM,100 to 1000 nM,< 100 nM,100 to 1000 nM,< 100 nM
"Cc1cn2nc(-c3cc4ccn(C5CCNCC5)c(=O)c4cn3)cc(C)c2n1 [Compound 1198, 6-(2,8-dimethylimidazo[1,2-b]pyridazin-6-yl)-2-(piperidin-4-yl)-2,7-naphthyridin-1(2H)-one]",100 to 1000 nM,,100 to 1000 nM,100 to 1000 nM,,100 to 1000 nM,100 to 1000 nM,100 to 1000 nM,100 to 1000 nM,100 to 1000 nM
Cn1cc2cc(-c3cc4ccn(C5CCNCC5)c(=O)c4cn3)c(O)c(F)c2n1 [Compound 1199],1000 to 10000 nM,,1000 to 10000 nM,1000 to 10000 nM,,100 to 1000 nM,1000 to 10000 nM,1000 to 10000 nM,1000 to 10000 nM,1000 to 10000 nM

# Now from value to compound, other results behind:
IC50 (HTT mRNA; [2]),IC50 (HTT mRNA; [3]),IC50 (Target C),GI50 [1],IC50 (MYB mRNA; [4]),IC50 (MYB mRNA; [5]),IC50 (HTT mRNA; [6]),IC50 (MYB mRNA; [7]),SMILES,AC50 (HTT mRNA; RT-qPCR),AC50 (MYB mRNA; RT-qPCR)
> 10000 nM,1000 to 10000 nM,> 10000 nM,100 to 1000 nM,100 to 1000 nM,100 to 1000 nM,,,"Cc1c(O)c(-c2ncc3c(=O)n(C4CCNC4)ccc3n2)cc2cn(C)nc12 (stereo in doubt) [Compound 1439, (6R)-2-(6-hydroxy-2,7-dimethyl-indazol-5-yl)-6-pyrrolidin-3-yl-pyrido[4,3-d]pyrimidin-5-one]",1000 to 10000 nM,100 to 1000 nM
> 10000 nM,> 10000 nM,> 10000 nM,100 to 1000 nM,100 to 1000 nM,100 to 1000 nM,,,"Cc1c(O)c(-c2ncc3c(=O)n(C4CCNC4)ccc3n2)cc2cn(C)nc12 (stereo in doubt) [Compound 1440, (6S)-2-(6-hydroxy-2,7-dimethyl-indazol-5-yl)-6-pyrrolidin-3-yl-pyrido[4,3-d]pyrimidin-5-one]",> 10000 nM,100 to 1000 nM
1000 to 10000 nM,1000 to 10000 nM,1000 to 10000 nM,100 to 1000 nM,100 to 1000 nM,100 to 1000 nM,,,"Cc1c(O)c(-c2ncc3c(=O)n([C@@H]4CC5CC4CN5)ccc3n2)cc2cn(C)nc12 (stereo in doubt) [Compound 1443, 6-[(1R,4R,5R)-2-azabicyclo[2.2.1]heptan-5-yl]-2-(6-hydroxy-2,7-dimethyl-indazol-5-yl)pyrido[4,3-d]pyrimidin-5-one]",1000 to 10000 nM,100 to 1000 nM
100 to 1000 nM,100 to 1000 nM,100 to 1000 nM,100 to 1000 nM,100 to 1000 nM,100 to 1000 nM,,,"Cc1c(O)c(-c2ncc3c(=O)n(C4C[C@H]5C[C@@H]4CN5)ccc3n2)cc2cn(C)nc12 (stereo in doubt) [Compound 1444, 6-[(1R,4R,5R)-2-azabicyclo[2.2.1]heptan-5-yl]-2-(6-hydroxy-2,7-dimethyl-indazol-5-yl)pyrido[4,3-d]pyrimidin-5-one]",100 to 1000 nM,100 to 1000 nM
> 10000 nM,> 10000 nM,> 10000 nM,100 to 1000 nM,1000 to 10000 nM,1000 to 10000 nM,,,"Cc1c(O)c(-c2ncc3c(=O)n([C@@H]4C[C@H]5C[C@@H]4CN5)ccc3n2)cc2cn(C)nc12 (stereo in doubt) [Compound 1446, 6-[(1R,4R,5R)-2-azabicyclo[2.2.1]heptan-5-yl]-2-(6-hydroxy-2,7-dimethyl-indazol-5-yl)pyrido[4,3-d]pyrimidin-5-one]",> 10000 nM,1000 to 10000 nM
100 to 1000 nM,,1000 to 10000 nM,100 to 1000 nM,,100 to 1000 nM,100 to 1000 nM,100 to 1000 nM,"Cc1cc(-c2cc3ccn(C4CCNCC4)c(=O)c3cn2)cc2cn(C)nc12 [Compound 1204, 6-(2,7-dimethyl-2H-indazol-5-yl)-2-(piperidin-4-yl)-2,7-naphthyridin-1(2H)-one]",100 to 1000 nM,100 to 1000 nM
100 to 1000 nM,,100 to 1000 nM,100 to 1000 nM,,100 to 1000 nM,100 to 1000 nM,100 to 1000 nM,"Cc1cn2cc(-c3cc4ccn(C5CCNCC5)c(=O)c4cn3)nc(C)c2n1 [Compound 1205, 6-(2,8-dimethylimidazo[1,2-a]pyrazin-6-yl)-2-(piperidin-4-yl)-2,7-naphthyridin-1(2H)-one]",100 to 1000 nM,100 to 1000 nM
> 10000 nM,,> 10000 nM,1000 to 10000 nM,,1000 to 10000 nM,> 10000 nM,100 to 1000 nM,"Cc1cc(-c2cc3ccn(C4CCN(C)CC4)c(=O)c3cn2)cc2cn(C)nc12 [Compound 1206, 6-(2,7-dimethyl-2H-indazol-5-yl)-2-(1-methylpiperidin-4-yl)-2,7-naphthyridin-1(2H)-one]",> 10000 nM,100 to 1000 nM
100 to 1000 nM,,,100 to 1000 nM,,100 to 1000 nM,100 to 1000 nM,100 to 1000 nM,Cc1cn2cc(-c3ncc4c(=O)n([C@H]5CCNC5)ccc4n3)cc(F)c2n1 [Compound 1220],100 to 1000 nM,100 to 1000 nM
